Laboratory results reported in ChEMBL document CHEMBL5518181, “Studies of antibacterial activity (in vitro and in vivo) and mode of action for des-acyl tridecaptins (DATs)” (Eur J Med Chem, 2024).
Converted amounts (≈) assume the structure as drawn. The source made the active and inactive calls. The calls are words filed in the database; no cut-off is given here.

Experiments:
[1] = test system: Klebsiella pneumoniae; experiment: Antibacterial activity against Klebsiella pneumoniae ATCC 43816 assessed as inhibition of bacterial growth incubated for 18 hrs; type: functional
[2] = test system: Klebsiella aerogenes; experiment: Antibacterial activity against Enterobacter aerogenes ATCC 13048 assessed as inhibition of bacterial growth incubated for 18 hrs; type: functional
[3] = test system: Staphylococcus aureus; experiment: Antibacterial activity against wild type Staphylococcus aureus USA300 assessed as inhibition of bacterial growth incubated for 18 hrs; type: functional
[4] = test system: Pseudomonas aeruginosa; experiment: Antibacterial activity against efflux-deficient Pseudomonas aeruginosa PAO750 assessed as inhibition of bacterial growth incubated for 18 hrs; type: functional
[5] = test system: Proteus mirabilis; experiment: Antibacterial activity against Proteus mirabilis ATCC 25933 assessed as inhibition of bacterial growth incubated for 18 hrs; type: functional
[6] = test system: Escherichia coli; experiment: Antibacterial activity against colistin resistant Escherichia coli NCTC 13846 harboring mcr-1 gene assessed as inhibition of bacterial growth incubated for 18 hrs; type: functional
[7] = Cytotoxicity against human HepG2 cells incubated for 40 hrs by celltiter-glo luminescent cell viability assay; type: toxicity, cell-based
[8] = test system: Citrobacter freundii; experiment: Antibacterial activity against Citrobacter freundii ATCC 8090 assessed as inhibition of bacterial growth incubated for 18 hrs; type: functional
[9] = test system: Klebsiella pneumoniae; experiment: Antibacterial activity against Klebsiella pneumoniae ATCC BAA-2470 expressing NDM-1 assessed as inhibition of bacterial growth incubated for 18 hrs; type: functional
[10] = test system: Escherichia coli; experiment: Antibacterial activity against Escherichia coli Swiss 9 harboring mcr-1 gene assessed as inhibition of bacterial growth incubated for 18 hrs; type: functional
[11] = test system: Escherichia coli; experiment: Antibacterial activity against Escherichia coli Swiss 7 harboring mcr-1 gene assessed as inhibition of bacterial growth incubated for 18 hrs; type: functional
[12] = test system: Escherichia coli; experiment: Antibacterial activity against Escherichia coli ATCC BAA-2469 expressing NDM-1 assessed as inhibition of bacterial growth incubated for 18 hrs; type: functional
[13] = test system: Morganella morganii; experiment: Antibacterial activity against Morganella morganii ATCC 25830 assessed as inhibition of bacterial growth incubated for 18 hrs; type: functional
[14] = test system: Klebsiella pneumoniae; experiment: Antibacterial activity against wild-type Klebsiella pneumoniae ATCC 13883 assessed as inhibition of bacterial growth incubated for 18 hrs; type: functional; settings: for MIC: read-out: MIC100
[15] = test system: Providencia stuartii; experiment: Antibacterial activity against Providencia stuartii ATCC 25826 assessed as inhibition of bacterial growth incubated for 18 hrs; type: functional
[16] = test system: Serratia marcescens; experiment: Antibacterial activity against intrinsically colistin resistant Serratia marcescens ATCC 13880 assessed as inhibition of bacterial growth incubated for 18 hrs; type: functional
[17] = test system: Salmonella typhimurium; experiment: Antibacterial activity against Salmonella typhimurium ATCC 13311 assessed as inhibition of bacterial growth incubated for 18 hrs; type: functional, Salmonella enterica subsp. enterica serovar Typhimurium
[18] = test system: Escherichia coli; experiment: Antibacterial activity against wild-type Escherichia coli ATCC 25922 assessed as inhibition of bacterial growth incubated for 18 hrs; type: functional; settings: for MIC: read-out: MIC100
[19] = test system: Enterobacter cloacae; experiment: Antibacterial activity against Enterobacter cloacae ATCC 23355 assessed as inhibition of bacterial growth incubated for 18 hrs; type: functional
[20] = test system: Escherichia coli; experiment: Antibacterial activity against Escherichia coli panel (100 strains) assessed as inhibition of bacterial growth; type: functional
[21] = test system: Klebsiella pneumoniae; experiment: Antibacterial activity against Klebsiella pneumoniae panel (100 strains) assessed as inhibition of bacterial growth; type: functional
[22] = Drug localization in cytoplasm of Escherichia coli ATCC 25922 at 10 uM incubated for 10 mins by LC-MS/MS analysis; type: ADME, subcellular
[23] = Hemolytic activity in human red blood cells at 400 ug/ml incubated for 45 mins by spectrophotometric analysis relative to control; type: toxicity, cell-based, Erythrocyte; settings: red blood cells (erythrocytes), at 400 µg/mL, read-out: Activity
[24] = Drug uptake in Escherichia coli ATCC 25922 at 10 uM incubated for 10 mins by LC-MS/MS analysis; type: ADME
[25] = test system: Lipopolysaccharide (LPS); experiment: Binding affinity to Escherichia coli O55:B5 LPS assessed as dissociation constant by ITC analysis; type: subcellular
[26] = Binding affinity to gram negative bacterial lipid II assessed as dissociation constant by ITC analysis; parameters: species or system Bacteria
[27] = test system: Escherichia coli; experiment: Antibacterial activity against wild-type Escherichia coli ATCC 25922 assessed as inhibition of bacterial growth by measuring fold increase in MIC incubated for 18 hrs in presence of 50% heat inactivated human serum relative to control; type: functional
[28] = test system: Escherichia coli; experiment: Antibacterial activity against wild-type Escherichia coli ATCC 25922 assessed as inhibition of bacterial growth incubated for 18 hrs in presence of 50% heat inactivated human serum; type: functional; settings: read-out: MIC100
[29] = test system: Acinetobacter baumannii; experiment: Antibacterial activity against wild-type Acinetobacter baumannii ATCC 19606 assessed as inhibition of bacterial growth incubated for 20 hrs; type: functional; settings: read-out: MIC100
[30] = test system: Staphylococcus aureus; experiment: Antibacterial activity against […] assessed as inhibition of bacterial growth incubated for 18 hrs; type: functional; settings: ATCC 29213, read-out: MIC100
[31] = Hydrophobicity of compound assessed as %MeCN at peak elution by RP-HPLC analysis; type: physicochemical
[32] = test system: Escherichia coli; experiment: Antibacterial activity against Escherichia coli ATCC 25922 harboring tolC knock-out assessed as inhibition of bacterial growth incubated for 18 hrs; type: functional; settings: read-out: MIC100
[33] = test system: Escherichia coli; experiment: Antibacterial activity against Escherichia coli ATCC 25922 harboring hldE knock-out assessed as inhibition of bacterial growth incubated for 18 hrs; type: functional; settings: read-out: MIC100
[34] = test system: Pseudomonas aeruginosa; experiment: Antibacterial activity against wild-type Pseudomonas aeruginosa PAO1 assessed as inhibition of bacterial growth incubated for 24 hrs; type: functional; settings: read-out: MIC100
[35] = test system: Bacteria; experiment: Binding affinity to gram negative bacterial lipid II at 250 uM by ITC analysis
[36] = test system: Klebsiella pneumoniae; experiment: Antibacterial activity against wild-type Klebsiella pneumoniae ATCC 13883 assessed as inhibition of bacterial growth incubated for 18 hrs in presence of 50% heat inactivated human serum; type: functional; settings: read-out: MIC100

Compound: O=C(O)c1cn(C2CC2)c2cc(N3CCNCC3)c(F)cc2c1=O [CIPROFLOXACIN]
- MIC ([1]; read-out: MIC100): 0.003 µg/mL (≈ 0.00905 µM)
- MIC ([2]; read-out: MIC100): 0.008 µg/mL (≈ 0.0241 µM)
- MIC ([3]; read-out: MIC100): 1 µg/mL (≈ 3.02 µM)
- MIC ([4]; read-out: MIC100): 0.004 µg/mL (≈ 0.0121 µM)
- MIC ([5]; read-out: MIC100): 0.016 µg/mL (≈ 0.0483 µM)
- MIC ([6]; read-out: MIC100): > 1 µg/mL
- IC50 at 40 h [7]: > 170 µg/mL
- MIC ([8]; read-out: MIC100): 0.004 µg/mL (≈ 0.0121 µM)
- MIC ([9]; read-out: MIC100): > 1 µg/mL
- MIC ([10]; read-out: MIC100): > 1 µg/mL
- MIC ([11]; read-out: MIC100): > 1 µg/mL
- MIC ([12]; read-out: MIC100): > 1 µg/mL
- MIC ([13]; read-out: MIC100): 0.002 µg/mL (≈ 0.00604 µM)
- MIC [14]: 0.032 µg/mL (≈ 0.0966 µM)
- MIC ([15]; read-out: MIC100): 0.016 µg/mL (≈ 0.0483 µM)
- MIC ([16]; read-out: MIC100): 0.032 µg/mL (≈ 0.0966 µM)
- MIC ([17]; Salmonella enterica, read-out: MIC100): 0.004 µg/mL (≈ 0.0121 µM)

Compound: COLISTIN
- MIC100 [1]: 1 µg/mL
- MIC100 [2]: 2 µg/mL
- MIC100 [18]: 0.5 µg/mL
- MIC100 [3]: > 32 µg/mL
- MIC100 [4]: 2 µg/mL
- MIC100 [19]: 2 µg/mL
- MIC100 [5]: > 32 µg/mL
- MIC100 [6]: 8 µg/mL
- MIC100 [8]: 2 µg/mL
- MIC50 [20]: < 0.125 µg/mL
- MIC90 [20]: 4 µg/mL
- MIC100 [9]: 4 µg/mL
- MIC100 [10]: 8 µg/mL
- MIC100 [11]: 8 µg/mL
- MIC100 [12]: 2 µg/mL
- MIC100 [13]: > 32 µg/mL
- MIC50 [21]: 0.5 µg/mL
- MIC90 [21]: > 16 µg/mL
- MIC100 [14]: 2 µg/mL
- MIC100 [15]: > 32 µg/mL
- MIC100 [16]: > 32 µg/mL
- MIC100 ([17]; Salmonella enterica subsp. enterica serovar Typhimurium): 2 µg/mL

Compound: CC[C@H](C)[C@@H](NC(=O)[C@@H](NC(=O)[C@H](CCC(=O)O)NC(=O)[C@H](Cc1ccccc1)NC(=O)[C@@H](CCN)NC(=O)[C@H](CCN)NC(=O)[C@H](CO)NC(=O)[C@@H](Cc1c[nH]c2ccccc12)NC(=O)[C@@H](CO)NC(=O)CNC(=O)[C@@H](CCN)NC(=O)[C@H](N)C(C)C)C(C)(C)C)C(=O)N[C@@H](C)C(=O)O
- Drug uptake [22]: Active
- MIC [18]: 16 µg/mL (≈ 11.4 µM)
- hemolysis at 0.75 h, 400 ug/ml [23]: 86.3%
- MIC [14]: 4 µg/mL (≈ 2.84 µM)
- Drug uptake [24]: Active

Compound: CC[C@@H](C)[C@@H](NC(=O)[C@@H](NC(=O)[C@H](CCC(=O)O)NC(=O)[C@H](Cc1ccccc1)NC(=O)[C@@H](CCN)NC(=O)[C@H](CCN)NC(=O)[C@H](CO)NC(=O)[C@@H](Cc1c[nH]c2ccccc12)NC(=O)[C@@H](CO)NC(=O)CNC(=O)[C@@H](CCN)NC(=O)[C@H](N)C(C)C)C(C)C)C(=O)N[C@@H](C)C(N)=O
- Kd [25]: 11.4 µM
- MIC [18]: 16 µg/mL (≈ 11.5 µM)
- IC50 at 40 h [7]: > 170 µg/mL
- hemolysis at 0.75 h, 400 ug/ml [23]: 0.4%
- MIC [14]: 64 µg/mL (≈ 45.9 µM)
- Kd [26]: 0.58 µM

Compound: CC[C@H](C)[C@@H](NC(=O)[C@@H](NC(=O)[C@H](CCC(=O)O)NC(=O)[C@H](Cc1c[nH]c2ccccc12)NC(=O)[C@@H](CCN)NC(=O)[C@H](CCN)NC(=O)[C@H](CO)NC(=O)[C@@H](Cc1c[nH]c2ccccc12)NC(=O)[C@@H](CO)NC(=O)CNC(=O)[C@@H](CCN)NC(=O)[C@H](NC(=O)[C@H](C)N)C(C)C)C(C)C)C(=O)N[C@@H](C)C(=O)O
- Kd [25]: 14.8 µM
- MIC [18]: 1 µg/mL (≈ 0.665 µM)
- IC50 at 40 h [7]: 151 µg/mL (≈ 100 µM)
- hemolysis at 0.75 h, 400 ug/ml [23]: 41.7%
- MIC [14]: 1 µg/mL (≈ 0.665 µM)
- Kd [26]: 5.2 µM

Compound: CC[C@H](C)[C@@H](NC(=O)[C@@H](NC(=O)[C@H](CCC(=O)O)NC(=O)[C@H](Cc1ccccc1)NC(=O)[C@@H](CCN)NC(=O)[C@H](CCN)NC(=O)[C@H](CO)NC(=O)[C@@H](Cc1c[nH]c2ccccc12)NC(=O)[C@@H](CO)NC(=O)CNC(=O)[C@@H](CCN)NC(=O)[C@H](N)C(C)C)C(C)(C)C)C(=O)N[C@@H](C)C(N)=O
- fold change (FC) [27]: 2
- MIC [28]: 2 µg/mL
- Kd [25]: 16.7 µM
- MIC [29]: > 64 µg/mL
- MIC [18]: 4 µg/mL (≈ 2.84 µM)
- MIC [30]: > 64 µg/mL
- MeCN percentage at peak elution [31]: 41%
- IC50 at 40 h [7]: 93 µg/mL (≈ 66.1 µM)
- hemolysis at 0.75 h, 400 ug/ml [23]: 2.6%
- MIC [32]: 0.25 µg/mL (≈ 0.178 µM)
- MIC [33]: 0.125 µg/mL (≈ 0.0888 µM)
- MIC [34]: 16 µg/mL (≈ 11.4 µM)
- MIC [14]: 2 µg/mL (≈ 1.42 µM)
- Activity [35]: inactive
- MIC [36]: 4 µg/mL
